Experimental data taken from US11241436B2, “Autophagy inducers for treatment of CNS conditions” (Northwestern University, priority 2017, dated 2022).

Key:
LC3 = experiment: Promega Autophagy Assay System (HiBiT-tagged LC3 reporter, autophagy flux); assay type: cell-based; settings: LC3 reporter signal; decrease = increased autophagy
Excerpt: The Promega Augophagy Assay System uses LC3 to monitor the autophagy process. […] LgBiT is a […] recombinant protein derived from NanoLuc. When HiBiT associates with LgBiT, a strong luciferase activity is reconstituted. An increase in autophagy will accelerate the degradation of LC3 reporter which decreases the assay signal. In contrast, inhibition of autophagy causes the accumulation of LC3 which will increase the reporter levels and assay signal.

Aβ42 = experiment: Dot blot assay of Aβ42 in brain of 5XFAD mice; assay type: in vivo, mouse; settings: 5XFAD Becn1 F121A mice, 2 mg/kg i.p. once per day for 7 days
Experimental: Total protein loading was labeled by Ponceau S. N=5. **, P<0.01, t test.
Total protein loading was labeled by Ponceau S. Triplicate experiments from 4-5 mice in each group were shown. Results represent mean±s.e.m. NS, not significant; *, P<0.05; **, P<0.01; ***, P<0.001, t test.
Total protein loading was labeled by Ponceau S. Triplicate experiments from 4 mice in each group were shown.
Dot blot assay. Snap frozen hemi-brain were homogenized in 800 μl phosphate-buffered saline (PBS; Sigma-Aldrich, D8537) with 1% Triton X-100 supplemented with halt proteinase inhibitor cocktail (ThermoFisher Scientific), and halt phosphatase inhibitor cocktail (ThermoFisher Scientific). Protein concentration was quantified using BCA Assay (Pierce). For Af342 dot blots, 10 mg/ml brain homogenates were extracted in guanidine buffer (5 M guanidine-HCl [GuHCl], 50 mM Tris HCl pH 8.0) overnight at room temperature. One μl of sample was spotted in triplicate on 0.2 μm nitrocellulose membrane, and dried for 1 h at 37° C. The membrane was stained with Ponceau S, and the dot blot signal on the membrane was detected by immunostaining with Aβ42 antibody (Invitrogen, 700254, 1:1000) and HRP-conjugated secondary antibody (Santa Cruz Biotechnology, sc2004, 1:2000). Aβ42 signals were normalized to the Ponceau S staining. To separate soluble and insoluble Aβ fractions, 10 mg/ml of the total homogenated brains were centrifuged at 14000 rpm, 4° C. for 30 min. The supernatant (soluble fraction) was used directly for dot blot assays. The pellet (insoluble fraction) was extracted in guanidine buffer overnight at room temperature, and used in dot blot analyses. […] One μl of each sample was spotted on nitrocellulose membrane for dot blot analysis.

[1] = Body weight during chronic WIN treatment; assay type: in vivo, mouse; settings: mice of all genotypes during chronic WIN treatment
Excerpt: N=9-13 mice/group. Results represent mean±s.e.m.

CB1R signaling = CB1R signaling in brain (phosphorylation of MEK and JNK) after chronic WIN; assay type: in vivo, mouse; settings: repeated WIN treatment 14 d
Experimental: WT mice were treated with either daily WIN or vehicle for 14 d, and then subject to an acute dosage of WIN 1 h prior to collection of brain samples.
To investigate whether restoration of CB1R signaling underlies the behavioral regulation by autophagy activation, the level and functionality of CB1R in mouse brain after co-administration of chronic cannabinoids and autophagy inducers were analyzed. […] To determine whether the increased level of CB1R represents CB1R re-sensitization in the brain, the agonist-induced phosphorylation of signaling kinases downstream of CB1R after chronic WIN exposure were analyzed.

WT mice = experiment: Analgesic tolerance test during chronic WIN treatment; assay type: in vivo, mouse; settings: after 14 d of repeated WIN dosage (day 14)
Experimental: Briefly, mice were injected with WIN for 14 d, and analgesic tolerance was measured without WIN treatment on day 0, and after 1-h WIN treatment on day 1 and day 14.
There were no genotype differences either in basal pain sensitivity to infrared heat-generated pain (agonist-free, day 0) (FIG. 2C), or in analgesic effects of acute WIN treatment prior to chronic WIN administration (day 1) (FIG. 2D).

Row | SMILES | AC50 (LC3) [µM] | also measured
1 | N=c1c2c(-c3ccccc3)c(-c3ccccc3)n(CCc3ccccc3)c2ncn1[C@@H]1CCCC[C@H]1O | 7.31 | 
2 | N=c1c2c3c(n(CCc4ccccc4)c2ncn1C1CCOCC1)CCCC3 | 7.31 | 
3 | N=c1c2c(-c3ccccc3)c(-c3ccccc3)n(Cc3ccccc3)c2ncn1CC1COC1 | 8.2 | 
4 | COc1ccc(Cn2c(-c3ccccc3)c(-c3ccccc3)c3c(=N)n(CC4CCOCC4)cnc32)cc1 | 9.2 | 
5 | N=c1c2c(-c3ccccc3)c(-c3ccccc3)n(Cc3ccccc3)c2ncn1[C@H]1CC[C@H](CO)CC1 | 9.2 | 
6 | CNC(=O)c1ccccc1Oc1nc(Nc2cc(OC)c(OC)c(OC)c2)ncc1Br [SBI-0206965, reference compound] |  | Becn1 F121A-induced reduction in brain Aβ42 levels (Aβ42): abolished the reduction
7 | Cc1c(C(=O)c2cccc3ccccc23)c2cccc3c2n1[C@H](CN1CCOCC1)CO3 [WIN, reference compound] |  | body weight [1]: remained constant; activation of CB1R (CNR1) signaling induced by agonists (CB1R signaling): decreased activation; analgesic effect of WIN (WT mice): markedly decreased
